# Source: publication PMC10313368 (The Journal of Clinical Investigation, 2023)
# Several values for one entry are separate records, joined by “and”; a condition that tells them apart may be missing. Equal entries are not always repeated.
# Experiments:
# [1] = test system: MIO-M1 cells; experiment: qPCR of VEGF and ANGPTL4 mRNA in hypoxic MIO-M1 cells; type: cell-based, human; details: for Angptl4 mRNA / Vegfa mRNA: MIO-M1, 1%O2+32-134D 10μM, 20%O2 about 1, replicates, Figure 7H
# Protocol: (§1) MIO-M1, HUVECs, and ARPE19 cells were cultured in DMEM with 10% (vol/vol) FBS (Quality Biological) and 1% penicillin/streptomycin (Cellgro). A hypoxic chamber (Coy Laboratory Product Inc.; Two Glove Model) with 5% CO2, 94% N2, and 1% O2 gas concentration at 37°C was used to culture hypoxic cells. The control cells were cultured in an incubator maintained at 37°C, with 21% O2 and 5% CO2. […] Aflibercept was obtained from the Johns Hopkins University Pharmacy. […]
# (§2) Reverse transcription and quantitative real-time PCR. Total RNA was isolated from cultured cells or retinas with PureLinkTM RNA Mini Kit (Invitrogen #12183025), and cDNA was prepared with MuLV Reverse Transcriptase (Applied Biosystems). Quantitative real-time PCR was performed with Power SYBR Green PCR Master Mix (Applied Biosystems) and MyiQ Real-Time PCR Detection System (Bio-Rad). Normalization was done using cyclophilin A for mouse tissue and human cell lines. Primers are listed in Supplemental Table 2. […]
# [2] = test system: HIF transcriptional activity; details: cell-based reporter assay; read-out: IC50, inhibition of HIF transcriptional activity; cited from earlier work
# [3] = target: HIF-2α (Homo sapiens, UniProt Q99814); experiment: Immunoblot of HIF-2α accumulation in D120 hiPSC-derived retinal organoids in 1% O2; type: cell-based; design: endogenous in cells; details: 1% O2 12 hours, 32-134D
# Protocol: (§3) An hiPSC line derived from CD34^+ cord blood was used in this study (A18945, Thermo Fisher Scientific) ([70]). Undifferentiated hiPSCs and derived retinal organoids were routinely tested for mycoplasma contamination by PCR. Cell culture, retinal differentiation, and organoid formation were conducted as previously described ([71]). Retinal organoids at D120 were used for experiments.
# (§4) Immunoblot assays. Cells, neurosensory retina, and D120 retinal organoid lysates were subjected
# (§5) to 4–15% gradient SDS/PAGE (Invitrogen). Immunoblot (Western blot or WB) assays were
# (§6) performed as previously described (1). […]
# [4] = test system: OIR mice; experiment: Retinal NV in the oxygen-induced retinopathy (OIR) mouse model; type: in vivo; design: Figure 14 C (retinal NV, OIR) / Figure 14 E (retinal NV, OIR): unit not given here
# From the text: To characterize the contribution of these other HIF-regulated angiogenic factors to the promotion of ischemia-driven retinal NV in vivo, we used the classic oxygen-induced retinopathy (OIR) model characterized by Smith and colleagues ([35]). In stage 1 of this model, P7 pups are exposed to hyperoxia (75% O2) for 5 consecutive days (P7–P12), resulting in obliteration of the posterior retinal vasculature. In stage 2, pups (at P12) are returned to room air (21% O2). The resulting relative ischemia promotes the expression of angiogenic mediators that stimulate the development of retinal NV (peaking at P17; Figure 2A). […]
# Animal studies. Eight-week-old pathogen-free female C57BL/6 mice were obtained from The Jackson Laboratory (JAX). Timed pregnant C57BL/6 mice were obtained from Charles River Laboratories. Mice heterozygous for HIF-1α have been previously described (2). Mice heterozygous for HIF-2α (strain number: 003266; common name: EPAS1 KO) were purchased […]
# OIR mouse model. OIR experiments were performed as previously described (1, 3). Briefly, C57BL/6 mice were placed in 75% O2 on P7. On P12, the mice were returned to room air and were […]
# (or vehicle) by intravitreal injection. Mice with body weight less than 6 g at P17 were excluded […]
# from analysis. Data were collected from both males and females and the results were combined since there was no apparent difference between sexes. Representative images for selected time points from a minimum of three independent experiments are shown. Data from 3-8 pups were obtained at each time point. […]
# Intraperitoneal (IP) injections. […]
# intraperitoneally using an insulin syringe in OIR pups. […]
# the peritoneal cavity of neonatal C57BL/6 mice and STZ mice at indicated times, and the retinal vasculature and lysates for WB and qPCR were assessed at P17.
# Intraocular injections. Intravitreal injections were performed with a PLI-100A Pico-liter Microinjector (Warner Instruments, Harvard Bioscience) using pulled-glass micropipettes. Each micropipette was calibrated to deliver a 1 μl volume on depression of a foot switch. The mice were anesthetized with a ketamine (100 mg/kg) and xylazine (5mg/kg) mixture, and under a dissecting microscope, the sharpened tip of the micropipette was passed through the sclera just posterior to the limbus into the vitreous cavity and the foot switch was depressed, which caused fluid to […]
# penetrate into the vitreous space. […]
# mice for vascular permeability test, retinal vasculature, and lysates for WB and qPCR analysis.
# Immunoﬂuorescence assays. Details for antibodies are provided in Supplemental Table 1.
# Immunofluorescence assays in retinal organoids and mouse retinal tissues were performed as previously described (4). Briefly, mice were sacrificed using CO2 asphyxiation, and the eyes were enucleated and fixed with a solution of 4% paraformaldehyde in PBS (Thermo Scientific™) for two hours at RT, followed by washing with PBS for 10 minutes in a shaker. Retinas were isolated and incubated in 0.5% BSA solution overnight at 4 °C. Retinas were then washed with PBS 3 times for 10 minutes in the shaker and stained with isolectin B4 (Invitrogen; 1:200 dilution in PBS) overnight at 4 °C. After washing 3 times for 10 minutes each in the shaker, the retinas were mounted. Images were captured with Zeiss fluorescent microscope. Eight fields per eye (2 fields per petal) including area of neovascularization were selected and fluorescence intensity was measured by ImageJ software. […]
# The eyes were enucleated and immediately immersed in 4% (wt/vol) paraformaldehyde for 2 hours at room temperature. Retinas were isolated and wholemounts prepared on clean glass slides and mounted vitreous side up under coverslips with antifade medium (Vectashield; Vector Laboratories, Burlingame, CA). Images were captured by Zeiss fluorescent microscope or confocal microscopy and fluorescence was quantified by the image J software (National Institutes
# [5] = test system: HUVECs; experiment: qPCR of VEGF, ANGPTL4, ANGPT2, PTPRB, SERPINE1 mRNA in hypoxic HUVECs; type: cell-based, human; details: for Angptl4 mRNA / Vegfa mRNA: HUVEC 16HRS, Figure 8D; for Angptl4 mRNA / Vegfa mRNA / Angpt2 mRNA / Ptprb mRNA / Serpine1 mRNA: replicates; for Angpt2 mRNA / Ptprb mRNA / Serpine1 mRNA: HUVEC, Figure 8E
# Protocol: as §1, §2
# [6] = target: HIF-1α (Homo sapiens, UniProt Q16665); experiment: Immunoblot of HIF-1α accumulation in D120 hiPSC-derived retinal organoids in 1% O2; type: cell-based; design: endogenous in cells; details: 1% O2 12 hours, 32-134D
# Protocol: as §3, §4, §5, §6
# [7] = OIR mice, Figure 10E, individual values
# [8] = HUVECs, hypoxia 16 hours, 32-134D 10 μM
# Chain of HIF-2α (Q99814 whole entry): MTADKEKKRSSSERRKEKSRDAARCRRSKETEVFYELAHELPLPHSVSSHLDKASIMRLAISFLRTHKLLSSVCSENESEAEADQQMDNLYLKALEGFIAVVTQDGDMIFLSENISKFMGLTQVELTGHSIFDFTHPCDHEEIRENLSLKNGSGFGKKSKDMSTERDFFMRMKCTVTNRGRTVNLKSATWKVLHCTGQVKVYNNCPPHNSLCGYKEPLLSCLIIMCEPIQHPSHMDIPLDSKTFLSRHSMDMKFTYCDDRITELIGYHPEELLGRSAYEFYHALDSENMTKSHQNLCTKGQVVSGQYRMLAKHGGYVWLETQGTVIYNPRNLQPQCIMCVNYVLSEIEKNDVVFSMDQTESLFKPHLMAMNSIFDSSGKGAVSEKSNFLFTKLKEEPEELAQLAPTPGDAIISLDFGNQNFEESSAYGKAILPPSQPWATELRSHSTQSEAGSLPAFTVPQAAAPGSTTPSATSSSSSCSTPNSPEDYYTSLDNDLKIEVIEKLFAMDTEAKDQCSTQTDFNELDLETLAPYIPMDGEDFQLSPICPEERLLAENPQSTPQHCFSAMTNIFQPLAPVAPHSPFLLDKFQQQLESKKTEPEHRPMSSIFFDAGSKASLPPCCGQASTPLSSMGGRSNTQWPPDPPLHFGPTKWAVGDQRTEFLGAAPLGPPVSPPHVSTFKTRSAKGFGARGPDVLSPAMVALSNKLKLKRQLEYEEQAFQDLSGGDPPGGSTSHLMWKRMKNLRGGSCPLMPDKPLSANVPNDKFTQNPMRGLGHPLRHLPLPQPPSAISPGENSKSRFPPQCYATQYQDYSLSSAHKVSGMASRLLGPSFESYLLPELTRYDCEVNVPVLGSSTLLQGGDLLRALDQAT
# Chain of HIF-1α (Q16665 whole entry): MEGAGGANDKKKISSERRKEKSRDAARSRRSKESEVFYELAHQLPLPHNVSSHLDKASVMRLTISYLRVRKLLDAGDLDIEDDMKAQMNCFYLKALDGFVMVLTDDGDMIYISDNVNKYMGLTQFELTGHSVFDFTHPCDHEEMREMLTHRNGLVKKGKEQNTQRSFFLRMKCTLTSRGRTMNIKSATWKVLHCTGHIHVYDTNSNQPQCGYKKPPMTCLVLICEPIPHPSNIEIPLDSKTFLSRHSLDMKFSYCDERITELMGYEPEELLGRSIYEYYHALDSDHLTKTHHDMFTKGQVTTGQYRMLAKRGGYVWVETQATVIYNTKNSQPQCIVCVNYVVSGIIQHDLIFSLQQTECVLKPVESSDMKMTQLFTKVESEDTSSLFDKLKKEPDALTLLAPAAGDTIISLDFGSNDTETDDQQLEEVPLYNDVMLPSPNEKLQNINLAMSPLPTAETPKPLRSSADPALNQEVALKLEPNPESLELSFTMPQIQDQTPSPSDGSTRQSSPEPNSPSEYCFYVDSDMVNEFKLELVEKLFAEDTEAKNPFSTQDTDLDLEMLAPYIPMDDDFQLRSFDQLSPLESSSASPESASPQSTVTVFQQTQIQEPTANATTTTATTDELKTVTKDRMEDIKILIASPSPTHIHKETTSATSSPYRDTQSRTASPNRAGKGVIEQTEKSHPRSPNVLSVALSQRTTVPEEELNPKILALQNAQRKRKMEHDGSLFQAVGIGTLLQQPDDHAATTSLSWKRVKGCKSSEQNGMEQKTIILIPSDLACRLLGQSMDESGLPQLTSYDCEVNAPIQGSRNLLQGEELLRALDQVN
structure (smiles),measurement,setting,value
"Brc1ccc2c(-c3csc(-c4c[nH]c5c(Br)cccc45)n3)c[nH]c2c1 [32-134D, 4-(6-bromo-1H-indol-3-yl)-2-(7-bromo-1H-indol-3-yl)thiazole]",logIC50,"[1]; Figure 12B, [Inhibitor] vs. response (three parameters), best-fit value",0.5455
same,Angptl4 mRNA,[1]; 2hrs,0.3563 and 0.4262 and 0.3782
same,Vegfa mRNA,[1]; 2hrs,1.026 and 1.073 and 1.079
same,Angptl4 mRNA,[1]; 4hrs,1.791 and 1.687 and 2.018
same,Vegfa mRNA,[1]; 4hrs,1.517 and 1.493 and 1.343
same,Angptl4 mRNA,[1]; 8hrs,1.385 and 1.132 and 0.993
same,Vegfa mRNA,[1]; 8hrs,2.421 and 2.295 and 2.311
same,IC50,[2],< 4 µM
same,accumulation of HIF-2α protein,[3],effectively prevented accumulation
same,retinal NV in OIR mice (in words),[4]; 5 consecutive days of i.p. injections 20 mg/kg 32-134D,marked reduction in retinal NV
same,"Figure 14 C (retinal NV, OIR)","[4]; 14ng intraocular, individual values",3.954 and 13.1715 and 11.5498 and 7.756 and 10.0719 and 10.2983
same,"Figure 14 C (retinal NV, OIR)","[4]; 70ng intraocular, individual values",3.009 and 6.226 and 3.283 and 2.049 and 6.5224 and 7.021
same,"Figure 14 E (retinal NV, OIR)","[4]; Figure 14E, 280ng intraocular, individual values",3.652 and 2.167 and 0.762 and 1.534 and 2.454 and 1.3869
same,avascular area (%),[4]; [7],39.7919% and 29.3948% and 27.2246% and 38.1203% and 35.7742% and 31.6081% and 33.2821% and 34.1%
same,neovascular area (%),[4]; [7],6.529% and 6.16% and 5.906% and 5.171% and 3.4% and 5.22% and 4.584% and 1.45%
same,inhibition of retinal NV at P17,"[4]; OIR mice, single intraocular injection 32-134D 14 ng at P12",~75%
same,inhibition of retinal NV at P17,"[4]; OIR mice, single intraocular injection 32-134D 280 ng at P12",approximately 85%
same,Angptl4 mRNA,[5]; 1% O2+32-134D 1μM,23.6548 and 19.8329 and 22.215
same,Vegfa mRNA,[5]; 1% O2+32-134D 1μM,3.163 and 3.148 and 2.936
same,Angptl4 mRNA,[5]; 1% O2+32-134D 10μM,13.1074 and 12.3148 and 11.0174
same,Vegfa mRNA,[5]; 1% O2+32-134D 10μM,2.892 and 2.5719 and 2.682
same,Angpt2 mRNA,[5]; 1% O2+32-134D 1μM,1.029 and 1.541 and 1.067
same,Ptprb mRNA,[5]; 1% O2+32-134D 1μM,1.641 and 1.627 and 1.638
same,Serpine1 mRNA,[5]; 1% O2+32-134D 1μM,2.465 and 2.4817 and 2.486
same,Angpt2 mRNA,[5]; 1% O2+32-134D 10μM,1.092 and 1.046 and 0.8708
same,Ptprb mRNA,[5]; 1% O2+32-134D 10μM,1.169 and 1.1917 and 1.0627
same,Serpine1 mRNA,[5]; 1% O2+32-134D 10μM,2.072 and 2.145 and 2.576
same,hypoxia-increased ANGPT2 mRNA (in words),[5]; [8],inhibited
same,hypoxia-increased PTPRB mRNA (in words),[5]; [8],inhibited
same,accumulation of HIF-1α protein,[6],effectively prevented accumulation
